Measurements published in patent publication US8591878B2, “Therapeutic compounds” (Merck Sharp & Dohme Corp., priority 2008, dated 2013).

system: subgenomic HCV replicon in Huh-7 cells; assay: Cell-Based HCV Replication Assay (replicon, NS3 Cell-ELISA); design: species or system hepatitis C virus (HCV); details: Hepatitis C virus, Huh-7, 96 h, read-out: Cell based HCV Replication Assay-IC50
Excerpt: Another suitable assay is the cellular Replicon or rheplisa assay described as follows:
Cell-Based HCV Replication Assay
Cell clones that stably maintain subgenomic HCV replicon were obtained by transfecting Huh-7 cells with an RNA replicon identical to I377neo/NS3-3′/wt described by V. Lohmann et al., 285 SCIENCE 110 (Jul. 2, 1999) (EMBL-GENBANK No. AJ242652), followed by selection with neomycin sulfate (G418). Viral replication was monitored by measuring the expression of the NS3 protein by an ELISA assay performed directly on cells grown in 96-well microtiter plates (Cell-ELISA) using the anti-NS3 monoclonal antibody 10E5/24 (as described in International Patent Application Publication WO 02/59321). Cells were seeded into 96 well plates at a density of 10^4 cells per well in a final volume of 0.1 ml of DMEM/10% FCS. Two hours after plating, 50 μl of DMEM/10% FCS containing a 3× concentration of inhibitor were added, cells were incubated for 96 hours and then fixed for 10 minutes with ice-cold isopropanol. Each condition was tested in duplicate and average absorbance values were used for calculations. The cells were washed twice with PBS, blocked with 5% non-fat dry milk in PBS+0.1% TRITON X-100+0.02% SDS (PBSTS) and then incubated o/n at 4° C. with the 10E5/24 mab diluted in Milk/PBSTS. After washing 5 times with PBSTS, the cells were incubated for 3 hours at room temperature with Fe-specific anti-mouse IgG conjugated to alkaline phosphatase (Sigma), diluted in Milk/PBSTS. After washing again as above, the reaction was developed with p-nitrophenyl phosphate disodium substrate (Sigma) and the absorbance at 405/620 nm read at intervals. For calculations, we used data sets where samples incubated without inhibitors had absorbance values comprised between 1 and 1.5. The inhibitor concentration that reduced by 50% the expression of NS3 (IC50) was calculated by fitting the data to the Hill equation, Fraction inhibition=1−(Ai−b)/(A0−b)=[I]^n/([I]+IC50) where: • Ai=absorbance value of HBI10 cells supplemented with the indicated inhibitor concentration. • A0=absorbance value of HBI10 cells incubated without inhibitor. • b=absorbance value of Huh-7 cells plated at the same density in the same microtiter plates and incubated without inhibitor. • n=Hill coefficient.

| Molecule | IC50 [nM] |
| --- | --- |
| C=C[C@@H]1C[C@]1(NC(=O)[C@@H]1C[C@@H]2CN1C(=O)[C@H](C1CCCCC1)NC(=O)N1CCC[C@@H](CCCCc3cc4c(cc(-c5ccccc5)nc4cc3OC)O2)C1)C(=O)NS(=O)(=O)C1CC1 [Example 7, (3R,5S,8S,15R)-8-cyclohexyl-N-((1R,2S)-1-{[(cyclopropylsulfonyl)amino]carbonyl}-2-vinylcyclopropyl)-21-methoxy-7,10-dioxo-25-phenyl-2-oxa-6,9,11,24-tetraazapentacyclo [18.6.2.1^3,6.1^11,15.0^23,27] triaconta-1(27),20,22,23,25,27-hexaene-5-carboxamide] | 8 |
| C=C[C@@H]1C[C@]1(NC(=O)[C@@H]1C[C@@H]2CN1C(=O)[C@H](C1CCCCC1)NC(=O)N1CCC[C@H](C1)OCCCc1cc3c(nccc3cc1OC)O2)C(=O)NS(=O)(=O)C1CC1 [Example 11, (3R,5S,8S,15R)-8-cyclohexyl-N-((1R,2S)-1-{[(cyclopropylsulfonyl)amino]carbonyl}-2-vinylcyclopropyl)-21-methoxy-7,10-dioxo-2,16-dioxa-6,9,11,26-tetraazapentacyclo [18.6.2.1^3,6.1^11,15.0^23,27] triaconta-1(26),20,22,24,27-pentaene-5-carboxamide] | 6 |
| C=C[C@@H]1C[C@]1(NC(=O)[C@@H]1C[C@@H]2CN1C(=O)[C@H](C(C)(C)C)NC(=O)N1CCC[C@H]1CCCCc1cccc3c1CN(C3)C(=O)O2)C(=O)NS(=O)(=O)C1CC1 [Example 5, (1R,16R,23S,26S)-23-tert-butyl-N-((1R,2S)-1-{[(cyclopropylsulfonyl)amino]carbonyl}-2-vinylcyclopropyl)-3,21,24-trioxo-2-oxa-4,20,22,25-tetraazapentacyclo [23.2.1.1^4,7.0^6,11.0^16,20] nonacosa-6,8,10-triene-26-carboxamide] | 170 |
| C=C[C@@H]1C[C@]1(NC(=O)[C@@H]1C[C@@H]2CN1C(=O)[C@H](C1CCCCC1)NC(=O)N1CCC[C@H](C1)OCCCc1cc3c(cc(OCC)nc3cc1OC)O2)C(=O)NS(=O)(=O)C1CC1 [Example 12, (3R,5S,8S,15R)-8-cyclohexyl-N-((1R,2S)-1-{[(cyclopropylsulfonyl)amino]carbonyl}-2-vinylcyclopropyl)-25-ethoxy-21-methoxy-7,10-dioxo-2,16-dioxa-6,9,11,24-tetraazapentacyclo [18.6.2.1^3,6.1^11,15.0^23,27] triaconta-1(27),20,22,23,25,27-hexaene-5-carboxamide] | 4 |

same assay, conditions: Hepatitis C virus; Huh-7 cells with subgenomic HCV replicon; NS3 expression by Cell-ELISA; 96 hours incubation; read-out: Cell based HCV Replication Assay-IC50

| Molecule | IC50 [nM] |
| --- | --- |
| CC[C@@H]1C[C@]1(NC(=O)[C@@H]1C[C@@H]2CN1C(=O)[C@H](C1CCCC1)NC(=O)N1CC[C@@H](C1)OCCC/C=C/c1cc3ccc(OC)cc3nc1O2)C(=O)NS(=O)(=O)C1CC1 [Example 19, (1R,13E,19S,25S,28S)-25-cyclopentyl-N-((1R,2R)-1-{[(cyclopropylsulfonyl)amino]carbonyl}-2-ethylcyclopropyl)-7-methoxy-23,26-dioxo-2,18-dioxa-4,22,24,27-tetraazapentacyclo [25.2.1.1^19,22.0^3,12.0^5,10] hentriaconta-3(12),4,5,7,9,10,13-heptaene-28-carboxamide] | 4 |
| C=C[C@@H]1C[C@]1(NC(=O)[C@@H]1CC2CN1C(=O)[C@H](C1CCCC1)NC(=O)N1CCCC(C1)OC/C=C/Cn1cc(C)c3c4ccccc4nc(c31)O2)C(=O)NS(=O)(=O)C1CC1 (stereo in doubt) [Example 15, (3S,5S,8S,18E)-8-cyclopentyl-N-((1R,2S)-1-{[(cyclopropylsulfonyl)amino]carbonyl}-2-vinylcyclopropyl)-23-methyl-7,10-dioxo-2,16-dioxa-6,9,11,21,31-pentaazahexacyclo [19.10.1.1^3,6.1^11,15.0^24,32.0^25,30] tetratriaconta-1(31),18,22,24(32),25,27,29-heptaene-5-carboxamide] | 5 |
| C=C[C@@H]1C[C@]1(NC(=O)[C@@H]1C[C@@H]2CN1C(=O)[C@H](C1CCCC1)NC(=O)N1CC[C@@H](C1)OCCCc1ccc3nc(OCC)nc(c3c1)O2)C(=O)NS(=O)(=O)C1CC1 [Example 41, (3R,5S,8S,14S)-8-cyclopentyl-N-((1R,2S)-1-{[(cyclopropylsulfonyl)amino]carbonyl}-2-vinylcyclopropyl)-24-ethoxy-7,10-dioxo-2,15-dioxa-6,9,11,23,25-pentaazapentacyclo [17.6.2.1^3,6.1^11,14.0^22,26] nonacosa-1(25),19,21,23,26-pentaene-5-carboxamide] | 94 |
| C=C[C@@H]1C[C@]1(NC(=O)[C@@H]1C[C@@H]2CN1C(=O)[C@H](C1CCCC1)CNC(=O)N1CC[C@H](COCCCc3nc4ccc(OC)cc4cc3O2)C1)C(=O)NS(=O)(=O)C1CC1 [Example 33, (1R,18S,24S,27S)-24-cyclopentyl-N-((1R,2R)-1-{[(cyclopropylsulfonyl)amino]carbonyl}-2-vinylcyclopropyl)-7-methoxy-22,25-dioxo-2,16-dioxa-11,21,23,26-tetraazapentacyclo [24.2.1.1^18,21.0^3,12.0^5,10] triaconta-3(12),4,5,7,9,10-hexaene-27-carboxamide] | > 100 |
| C=C[C@@H]1C[C@]1(NC(=O)[C@@H]1C[C@@H]2CN1C(=O)[C@H](C1CCCCC1)NC(=O)N1CCC[C@@H](C1)OCCCc1cc3c(nccc3cc1OC)O2)C(=O)NS(=O)(=O)C1CC1 [Example 10, (3R,5S,8S,15S)-8-cyclohexyl-N-((1R,2S)-1-{[(cyclopropylsulfonyl)amino]carbonyl}-2-vinylcyclopropyl)-21-methoxy-7,10-dioxo-2,16-dioxa-6,9,11,26-tetraazapentacyclo [18.6.2.1^3,6.1^11,15.0^23,27] triaconta-1(26),20,22,24,27-pentaene-5-carboxamide] | 7 |
| C=C[C@@H]1C[C@]1(NC(=O)[C@@H]1C[C@@H]2CN1C(=O)[C@H](C(C)(C)C)NC(=O)N1CCC[C@H]1CC/C=C/c1cccc3c1CN(C3)C(=O)O2)C(=O)NS(=O)(=O)C1CC1 [Example 4, (1R,12E,16R,23S,26S)-23-tert-butyl-N-((1R,2S)-1-{[(cyclopropylsulfonyl)amino]carbonyl}-2-vinylcyclopropyl)-3,21,24-trioxo-2-oxa-4,20,22,25-tetraazapentacyclo [23.2.1.1^4,7.0^6,11.0^16,20] nonacosa-6,8,10,12-tetraene-26-carboxamide] | 260 |

same assay, conditions: Hepatitis C virus; Huh-7 replicon cells; NS3 expression by Cell-ELISA; 96 hours; read-out: Cell-based HCV Replication Assay: IC50

| Molecule | IC50 [nM] |
| --- | --- |
| C=C[C@@H]1C[C@]1(NC(=O)[C@@H]1C[C@@H]2CN1C(=O)[C@H](C1CCCCC1)NC(=O)N1CCC[C@@H](C1)OCCCc1cc3c(cc(OCC)nc3cc1OC)O2)C(=O)NS(=O)(=O)C1CC1 [Example 1, (3R,5S,8S,15S)-8-Cyclohexyl-N-((1R,2S)-1-{[(cyclopropylsulfonyl)amino]carbonyl}-2-vinylcyclopropyl)-25-ethoxy-21-methoxy-7,10-dioxo-2,16-dioxa-6,9,11,24-tetraazapentacyclo[18.6.2.1^3,6.1^11,15.0^23,27]triaconta-1(27),20,22,23,25,27-hexaene-5-carboxamide] | 4 |

same assay, conditions: Huh-7 cells with subgenomic HCV replicon; NS3 expression by Cell-ELISA; 96 hours incubation; read-out: Cell based HCV Replication Assay-IC50

| Molecule | IC50 [nM] |
| --- | --- |
| (1R,13E,19S,25S,28S)-25- cyclohexyl-N-((1R,2S)-1- {[(cyclopropylsulfonyl)amino] carbonyl}-2- vinylcyclopropyl)-7-methoxy- 23,26-dioxo-2,18-dioxa- 4,22,24,27-tetraazapentacyclo [25.2.1.1^19,22.0^3,12.0^5,10] hentriaconta- 3(12),4,5,7,9,10,13-heptaene- 28-carboxamide [Example 42] | 3 |
| CC[C@@H]1C[C@]1(NC(=O)[C@@H]1C[C@@H]2CN1C(=O)[C@H](C1CCCC1)NC(=O)N1CC[C@@H](C1)OCCCCCc1cc3ccc(OC)cc3nc1O2)C(=O)NS(=O)(=O)C1CC1 [Example 20, (1R,19S,25S,28S)-25-cyclopentyl-N-((1R,2R)-1-{[(cyclopropylsulfonyl)amino]carbonyl}-2-ethylcyclopropyl)-7-methoxy-23,26-dioxo-2,18-dioxa-4,22,24,27-tetraazapentacyclo [25.2.1.1^19,22.0^3,12.0^5,10] hentriaconta-3(12),4,5,7,9,10-hexaene-28-carboxamide] | 15 |
